Laboratory results: patent US12486489B2, “Culture medium for testing drug resistance of H.pylori as well as preparation method and use thereof” (priority 2022, dated 2025)
Where two headings read alike, the source gives them in different places.

Test system: H. pylori
Test: MIC of laboratory H. pylori strains by micro dilution method
Format: cell-based
Conditions: Helicobacter pylori
Procedure: (3) Preparation of bacterial solution: H. pylori grown in logarithmic phase on a solid plate is taken, BHI culture medium is used to prepare a bacterial suspension. The concentration of the bacterial solution is adjusted to 1×10^8 CFU/mL (OD600 is 0.3), diluted 10 times, 100 times, and 1000 times to implement a final concentration of […], for the subsequent use.
(4) Inoculation of bacterial solution: 10 μL of the above bacterial solution for the subsequent use is taken and added to wells the 1-10-th and the 12-th well (bacterial working concentration is 1×10^6 CFU/mL), the 11-th well serves as a non-bacterial control and only sterile water is added. The wells are cultivated for 72 hours to determine the results.

[1] = read-out: MICs, standard sensitive strains G27 and 26695, bacterial count 1×10^6 CFU/mL
[2] = read-out: minimum inhibitory concentration (MIC), strain 159, bacterial count 10^4 CFU/mL
[3] = read-out: minimum inhibitory concentration (MIC), strain 161, bacterial count 10^4 CFU/mL
[4] = read-out: minimum inhibitory concentration (MIC), strain 161, bacterial count 10^6 CFU/mL (first line of the strain)
[5] = read-out: minimum inhibitory concentration (MIC), strain 161, bacterial count 10^6 CFU/mL (second line of the strain)
[6] = read-out: minimum inhibitory concentration (MIC), strain 162, bacterial count 10^4 CFU/mL
[7] = read-out: minimum inhibitory concentration (MIC), strain 162, bacterial count 10^6 CFU/mL (first line of the strain)
[8] = read-out: minimum inhibitory concentration (MIC), strain 162, bacterial count 10^6 CFU/mL (second line of the strain)
[9] = read-out: minimum inhibitory concentration (MIC), strain 163, bacterial count 10^6 CFU/mL (first line of the strain)
[10] = read-out: minimum inhibitory concentration (MIC), strain 163, bacterial count 10^6 CFU/mL (second line of the strain)
[11] = read-out: minimum inhibitory concentration (MIC), strain 286, bacterial count 10^4 CFU/mL
[12] = read-out: minimum inhibitory concentration (MIC), strain 286, bacterial count 10^6 CFU/mL (first line of the strain)
[13] = read-out: minimum inhibitory concentration (MIC), strain 286, bacterial count 10^6 CFU/mL (second line of the strain)
[14] = read-out: minimum inhibitory concentration (MIC), strain 287, bacterial count 10^4 CFU/mL
[15] = read-out: minimum inhibitory concentration (MIC), strain 287, bacterial count 10^6 CFU/mL (first line of the strain)
[16] = read-out: minimum inhibitory concentration (MIC), strain 287, bacterial count 10^6 CFU/mL (second line of the strain)
[17] = read-out: minimum inhibitory concentration (MIC), strain 289, bacterial count 10^4 CFU/mL
[18] = read-out: minimum inhibitory concentration (MIC), strain 289, bacterial count 10^6 CFU/mL (first line of the strain)
[19] = read-out: minimum inhibitory concentration (MIC), strain 289, bacterial count 10^6 CFU/mL (second line of the strain)
[20] = read-out: minimum inhibitory concentration (MIC), strain 290, bacterial count 10^4 CFU/mL
[21] = read-out: minimum inhibitory concentration (MIC), strain 290, bacterial count 10^6 CFU/mL (first line of the strain)
[22] = read-out: minimum inhibitory concentration (MIC), strain 290, bacterial count 10^6 CFU/mL (second line of the strain)
[23] = resistant strains 159, 161, 162, 163, 286, 287, 289, and 290, bacterial count 1×10^6 CFU/mL, read-out: MICs
[24] = strain G27, bacterial count 10^4 CFU/mL, read-out: minimum inhibitory concentration (MIC)
[25] = strain G27, bacterial count 10^6 CFU/mL (first line of the strain), read-out: minimum inhibitory concentration (MIC)
[26] = strain G27, bacterial count 10^6 CFU/mL (second line of the strain), read-out: minimum inhibitory concentration (MIC)
[27] = read-out: minimum inhibitory concentration (MIC), strain 159, bacterial count 10^6 CFU/mL (first line of the strain)
[28] = read-out: minimum inhibitory concentration (MIC), strain 159, bacterial count 10^6 CFU/mL (second line of the strain)
[29] = read-out: minimum inhibitory concentration (MIC), strain 163, bacterial count 10^4 CFU/mL
[30] = read-out: minimum inhibitory concentration (MIC), strain 26695, bacterial count 10^6 CFU/mL (second line of the strain)

Compound | MIC [1] [µg/mL] | MIC [3] [µg/mL] | MIC [4] [µg/mL] | MIC [7] [µg/mL] | MIC [9] [µg/mL] | MIC [10] [µg/mL] | MIC [11] [µg/mL] | MIC [12] [µg/mL] | MIC [13] [µg/mL] | MIC [15] [µg/mL] | MIC [16] [µg/mL] | MIC [17] [µg/mL] | MIC [18] [µg/mL] | MIC [19] [µg/mL] | MIC [20] [µg/mL] | MIC [21] [µg/mL] | MIC [22] [µg/mL] | MIC [24] [µg/mL] | MIC [25] [µg/mL] | MIC [26] [µg/mL] | also measured
CC[C@H]1OC(=O)[C@H](C)[C@@H](O[C@H]2C[C@@](C)(OC)[C@@H](O)[C@H](C)O2)[C@H](C)[C@@H](O[C@@H]2O[C@H](C)C[C@H](N(C)C)[C@H]2O)[C@](C)(OC)C[C@@H](C)C(=O)[C@H](C)[C@@H](O)[C@]1(C)O [Clarithromycin, clarithromycin] | 0.0312 to 0.0625 | 0.5 | 2 | 8 | 0.5 | 0.25 | 1 | 8 | 4 | 4 | 2 | 2 | 32 | 8 | 4 | 16 | 4 | 0.0156 | 0.0625 | 0.0312 | MIC [2]: 0.0312 µg/mL; MIC [5]: 1 µg/mL; MIC [6]: 1 µg/mL; MIC [8]: 4 µg/mL; MIC [14]: 8 µg/mL; MIC [23]: 0.0625 to 8 µg/mL; MIC (strain 159, bacterial count 10^6 CFU/mL (first line of the strain), read-out: minimum inhibitory concentration (MIC)): 0.125 µg/mL; MIC (strain 159, bacterial count 10^6 CFU/mL (second line of the strain), read-out: minimum inhibitory concentration (MIC)): 0.0625 µg/mL; MIC (strain 163, bacterial count 10^4 CFU/mL, read-out: minimum inhibitory concentration (MIC)): 0.125 µg/mL; MIC (strain 26695, bacterial count 10^6 CFU/mL (first line of the strain), read-out: minimum inhibitory concentration (MIC)): 0.125 µg/mL; MIC (strain 26695, bacterial count 10^6 CFU/mL (second line of the strain), read-out: minimum inhibitory concentration (MIC)): 0.0625 µg/mL
Cc1ncc([N+](=O)[O-])n1CCO [Metronidazole, metronidazole] | 0.25 | 1 | 4 | 2 | 16 | 4 | 4 | 32 | 16 | 32 | 16 | 8 | 32 | 16 | 4 | 32 | 16 | 0.125 | 0.5 | 0.5 | MIC [27]: 4 µg/mL; MIC [28]: 2 µg/mL; MIC [5]: 2 µg/mL; MIC [8]: 1 µg/mL; MIC [29]: 2 µg/mL; MIC [14]: 8 µg/mL; MIC [30]: 0.25 µg/mL; MIC [23]: 1 to 16 µg/mL
C[C@H]1COc2c(N3CCN(C)CC3)c(F)cc3c(=O)c(C(=O)O)cn1c23 [Levofloxacin, levofloxacin] | – | 1 | 2 | 8 | 16 | 4 | 0.5 | 1 | 0.5 | 4 | 2 | 2 | 8 | 4 | 16 | 32 | 32 | 0.0312 | 0.125 | 0.0625 | MIC [2]: 0.5 µg/mL; MIC [27]: 2 µg/mL; MIC [28]: 1 µg/mL; MIC [5]: 2 µg/mL; MIC [6]: 2 µg/mL; MIC [8]: 4 µg/mL; MIC [29]: 2 µg/mL; MIC [14]: 1 µg/mL; MIC [23]: 0.5 to 32 µg/mL
CC1(C)S[C@@H]2[C@H](NC(=O)[C@H](N)c3ccc(O)cc3)C(=O)N2[C@H]1C(=O)O [Amoxicillin, amoxicillin] | 0.0156 to 0.0325 | – | 0.125 | 0.125 | 1 | 0.5 | 0.5 | 1 | 0.5 | 0.25 | 0.125 | 0.125 | 1 | 0.5 | 1 | 4 | 2 | 0.00781 | 0.0312 | 0.0156 | MIC [27]: 0.125 µg/mL; MIC [29]: 0.25 µg/mL; MIC (read-out: minimum inhibitory concentration (MIC), strain 26695, bacterial count 10^4 CFU/mL): 0.0325 µg/mL; MIC [30]: 0.0325 µg/mL
